In one data set the target is chymotrypsin (Bos taurus, UniProt P00766). The conditions noted are these: inhibitor concentration 600 μg/mL; cited from earlier work.
Data set [1] deals with human poliomyelitis virus type 2 or human rhinovirus type 1A. It counts as cell-based. The arrangement: key to Protease-Inhibiting Activity of Selected Peptide Chloromethyl Ketones: Activity: -: no activity; +/-: low activity; +: active at 100 μg/mL; ++: active at 50 μg/mL; +++: active at 10 μg/mL; ++++: active at <5 μg/mL.
For data set [2], the system named is human poliomyelitis virus type 2. In kind it is cell-based. Conditions: test concentration 100 μg/mL.
Another data set relates to human rhinovirus type 1A. It counts as cell-based. The conditions noted are these: test concentration 100 μg/mL.
The target in another data set is T1, subtilisin BPN' (Bacillus amyloliquefaciens, UniProt P00782).
T1 sequence (P00782 108-382): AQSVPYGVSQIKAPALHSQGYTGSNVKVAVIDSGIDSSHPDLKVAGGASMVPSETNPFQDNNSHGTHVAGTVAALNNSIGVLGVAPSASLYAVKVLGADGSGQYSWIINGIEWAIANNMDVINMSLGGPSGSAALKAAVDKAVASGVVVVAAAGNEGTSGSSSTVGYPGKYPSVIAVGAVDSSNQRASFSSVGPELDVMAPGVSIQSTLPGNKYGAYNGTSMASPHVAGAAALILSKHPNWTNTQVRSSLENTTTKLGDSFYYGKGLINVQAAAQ
Conditions: cited from earlier work.

The next data set has as its system Poliovirus type 2. In kind it is cell-based.
A further data set has as its system rhinovirus type 1A. In kind it is cell-based.

Non-standard residues stand in square brackets, D forms with d. Residues, ends and D or L forms follow the SMILES beside them. ξ: configuration not given here. *: point of attachment. ξL = CC(C)CC(N)C(=O)O; CH2Cl = ClC* Where only a bound is given, the exact number is not on record here.

In the case of `CC(=O)N[C@@H](CC(C)C)C(=O)N[C@@H](CC(C)C)C(=O)N[C@@H](Cc1ccccc1)C(C)=O` [Ac-Leu-Leu-PheCH3], the inhibition of chymotrypsin entry at chymotrypsin is listed as “no inhibition was observed”. For `CC(=O)[C@H](CC(C)C)NC(=O)[C@H](C)NC(=O)CNC(=O)[C@H](Cc1ccccc1)NC(=O)OC(C)(C)C` [Boc-Phe-Gly-Ala-LeuCH3, reference compound], in data set [1], the “activity in the viral cleavage assay” value is on record as “failed to show activity”.

Consider `COC(=O)CCC(=O)N[C@@H](Cc1ccccc1)C(=O)NCC(=O)N[C@@H](C)C(=O)N[C@@H](CC(C)C)C(C)=O` [MeOSuc-Phe-Gly-Ala-LeuCH3, MeOSuc--Phe--Gly--Ala--LeuCH3], for which the “activity in the viral cleavage assay” value (in data set [2]; in the data set with human rhinovirus type 1A) was “demonstrated activity” each time. In data set [1], the “Protease-Inhibiting Activity of Selected Peptide Chloromethyl Ketones: Activity” value is reported as “+++ (key: -: no activity; +/-: low activity; +: active at 100 μg/mL; ++: active at 50 μg/mL; +++: active at 10 μg/mL; ++++: active at <5 μg/mL)”. With `COC(=O)CCC(=O)N[C@@H](Cc1ccccc1)C(=O)NCC(=O)N[C@@H](CC(C)C)C(=O)N[C@@H](CC(C)C)C(C)=O` [MeOSuc-Phe-Gly-Leu-LeuCH3], the “Protease-Inhibiting Activity of Selected Peptide Chloromethyl Ketones: Activity” value in data set [1] is listed as “+/-”.

With `CC(=O)N[C@@H](Cc1ccccc1)C(=O)NCC(=O)N[C@@H](C)C(=O)NC(CC(C)C)C(=O)CCl` (stereo partly drawn) [Peptide Analog 3, acetyl-L-phenylalanyl-L-glycyl-L-alanyl-L-leucyl chloromethyl ketone] (Ac-FGA[ξL]-CH2Cl), at subtilisin BPN', the “inhibition of subtilisin BPN' (rate, among the peptide chloromethyl ketones tested)” value was “fastest inhibitor”. For the compound `CC(=O)[C@H](CC(C)C)NC(=O)[C@H](C)NC(=O)CNC(=O)[C@H](Cc1ccccc1)NC(=O)OCc1ccccc1` [Z-Phe-Gly-Ala-LeuCH3], the cytotoxicity entry with HeLa cells is given as “No cytotoxicity was observed”. The “plaque reduction compared to control plates” value in the data set with Poliovirus type 2 and with rhinovirus type 1A was more than 90% throughout. Also, the “Protease-Inhibiting Activity of Selected Peptide Chloromethyl Ketones: Activity” value in data set [1] is on record as “+++ (key: -: no activity; +/-: low activity; +: active at 100 μg/mL; ++: active at 50 μg/mL; +++: active at 10 μg/mL; ++++: active at <5 μg/mL)”. On to `CC(=O)[C@H](CC(C)C)NC(=O)[C@H](CC(C)C)NC(=O)CNC(=O)[C@H](Cc1ccccc1)NC(=O)OCc1ccccc1` [Z-Phe-Gly-Leu-LeuCH3, N-carbobenzoxy-L-phenylalanyl-L-glycyl-L-leucyl-L-leucyl methyl ketone], for which the “Protease-Inhibiting Activity of Selected Peptide Chloromethyl Ketones: Activity” value in data set [1] is “+++ (key: -: no activity; +/-: low activity; +: active at 100 μg/mL; ++: active at 50 μg/mL; +++: active at 10 μg/mL; ++++: active at <5 μg/mL)”.

(Values after patent US4652552A, “Tetrapeptide methyl ketone inhibitors of viral proteases” (priority 1984, dated 1987).)
